# Measured values from patent publication US20250129430A1, “HIGH ATP-AFFINITY PROTEIN AS THERAPEUTIC TARGET FOR INTRACTABLE CANCER MOLECULAR SUBTYPES AND INHIBITOR THEREOF” (VeraVerse Co., Ltd., priority 2021, published 2025).
# What was measured:
# Assay in all cases: Cell viability drug screen, 12-point dose-response AUC
# Format in all cases: cell-based, human
# NCC24 = NCC24 cells, 72 hours
# In short: (§1)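 Viability: luminescence (Glo kit, 15 min RT), normalized to 0.5% DMSO vehicle. Dosing: half-log, 12 concentrations, 72 h. Cells: 5×10^3/well, treated 24 h after plating. Value: trapezoidal AUC, mean of repeats.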
# SNU601 = SNU601 cells, 72 hours
# In short: as §1
# SNU719 = SNU719 cells, 72 hours
# In short: (§2)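 Dose-response AUC reflects 72 h drug exposure of gastric cancer cells in a 12-point, half-log format, with viability read by luminescence and normalized to DMSO (0.5%).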
# OCUM1 = OCUM1 cells, 72 hours
# In short: as §1
# NCC59 = NCC59 cells, 72 hours
# In short: as §1
# YCC11 = conditions: 72 hours; for Average Area Under the Viability Curve (AUC), AUC norm value: YCC11 cells (SEM subtype)
# In short: as §1
# MKN1 = MKN1 cells, 72 hours
# In short: as §1
# NCC19 = NCC19 cells, 72 hours
# In short: as §1
# YCC3 = YCC3 cells, 72 hours
# In short: as §1
# NCI_N87 = NCI_N87 cells, 72 hours
# In short: as §1
# SNU16 = SNU16 cells, 72 hours
# In short: as §1
# SNU668 = conditions: 72 hours; for Average Area Under the Viability Curve (AUC), AUC norm value: SNU668 cells (SEM subtype)
# In short: as §1
# SNU638 = SNU638 cells, 72 hours
# In short: as §1
# SK4 = conditions: 72 hours; for Average Area Under the Viability Curve (AUC), AUC norm value: SK4 cells (SEM subtype)
# In short: as §1
# SNU1967 = SNU1967 cells, 72 hours
# In short: as §1
# MKN74 = MKN74 cells, 72 hours
# In short: as §2
# SNU1 = SNU1 cells, 72 hours
# In short: as §1
# NCC20 = NCC20 cells, 72 hours
# In short: as §1
# MKN45 = conditions: 72 hours; for Average Area Under the Viability Curve (AUC), AUC norm value: MKN45 cells (non-SEM subtype)
# In short: as §2
# KATO3 = KATO3 cells, 72 hours
# In short: as §1
# YCC2 = YCC2 cells, 72 hours
# In short: as §1
# Hs746T = conditions: 72 hours; for Average Area Under the Viability Curve (AUC), AUC norm value: Hs746T cells (SEM subtype)
# In short: as §1
# SNU216 = conditions: 72 hours; for Average Area Under the Viability Curve (AUC), AUC norm value: SNU216 cells (non-SEM subtype)
# In short: as §2
# AGS = conditions: 72 hours; for Average Area Under the Viability Curve (AUC), AUC norm value: AGS cells (non-SEM subtype)
# In short: as §2
# SNU484 = conditions: 72 hours; for Average Area Under the Viability Curve (AUC), AUC norm value: SNU484 cells (SEM subtype)
# In short: as §1
# SNU1750 = conditions: 72 hours; for Average Area Under the Viability Curve (AUC), AUC norm value: SNU1750 cells (SEM subtype)
# In short: as §1
# SNU620 = SNU620 cells, 72 hours
# In short: as §1
# MKN28 = MKN28 cells, 72 hours
# In short: as §1
# FU97 = tested on: FU97; set-up: Average Area Under the Viability Curve (AUC), AUC norm value: scale not given here; conditions: FU97 cells, 72 hours
# In short: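 Trapezoidal AUC of a 12-point, DMSO-normalized dose-response curve. Luminescent viability was measured after 72 h of exposure at 37° C to half-log serial dilutions (0.5% DMSO control), dosed 24 h after plating FU97 cells at 5×10^3 per well.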
compound,measurement,setting,value
"CC(C)n1nc(-c2ccc3oc(N)nc3c2)c2c(N)ncnc21 [INK 128 (MLN0128), INK 128]","Average Area Under the Viability Curve (AUC), AUC norm value",NCC24,0.7502
same,"Average Area Under the Viability Curve (AUC), AUC norm value",SNU601,1.346
same,"Average Area Under the Viability Curve (AUC), AUC norm value",SNU719,3.8255
same,"Average Area Under the Viability Curve (AUC), AUC norm value",OCUM1,0.03105
same,"Average Area Under the Viability Curve (AUC), AUC norm value",NCC59,1.541
same,"Average Area Under the Viability Curve (AUC), AUC norm value",YCC11,−2.648
same,"Average Area Under the Viability Curve (AUC), AUC norm value",MKN1,−0.7444
same,"Average Area Under the Viability Curve (AUC), AUC norm value",NCC19,0.3022
same,"Average Area Under the Viability Curve (AUC), AUC norm value",YCC3,0.8535
same,"Average Area Under the Viability Curve (AUC), AUC norm value",NCI_N87,0.7081
same,"Average Area Under the Viability Curve (AUC), AUC norm value",SNU16,−0.8733
same,"Average Area Under the Viability Curve (AUC), AUC norm value",SNU668,1.085
same,"Average Area Under the Viability Curve (AUC), AUC norm value",SNU638,0.2387
same,"Average Area Under the Viability Curve (AUC), AUC norm value",SK4,−2.931
same,"Average Area Under the Viability Curve (AUC), AUC norm value",SNU1967,−0.4728
same,"Average Area Under the Viability Curve (AUC), AUC norm value",MKN74,−0.4883
same,"Average Area Under the Viability Curve (AUC), AUC norm value",SNU1,1.281
same,"Average Area Under the Viability Curve (AUC), AUC norm value",NCC20,−2.568
same,"Average Area Under the Viability Curve (AUC), AUC norm value",MKN45,−0.5935
same,"Average Area Under the Viability Curve (AUC), AUC norm value",KATO3,1.633
same,"Average Area Under the Viability Curve (AUC), AUC norm value",YCC2,0
same,"Average Area Under the Viability Curve (AUC), AUC norm value",Hs746T,−1.821
same,"Average Area Under the Viability Curve (AUC), AUC norm value",SNU216,−0.9082
same,"Average Area Under the Viability Curve (AUC), AUC norm value",AGS,−1.244
same,"Average Area Under the Viability Curve (AUC), AUC norm value",SNU484,−1.089
same,"Average Area Under the Viability Curve (AUC), AUC norm value",SNU1750,−1.079
same,"Average Area Under the Viability Curve (AUC), AUC norm value",SNU620,0.08832
same,"Average Area Under the Viability Curve (AUC), AUC norm value",MKN28,1.195
same,"Average Area Under the Viability Curve (AUC), AUC norm value",FU97,−2.857
Cn1cc(CNCC2CCN(c3ncc(C(=O)NO)cn3)CC2)c2ccccc21 [JNJ-26481585],"Average Area Under the Viability Curve (AUC), AUC norm value",NCC24,−1.592
same,"Average Area Under the Viability Curve (AUC), AUC norm value",SNU601,1.501
same,"Average Area Under the Viability Curve (AUC), AUC norm value",SNU719,3.527
same,"Average Area Under the Viability Curve (AUC), AUC norm value",OCUM1,0.02955
same,"Average Area Under the Viability Curve (AUC), AUC norm value",NCC59,3.687
same,"Average Area Under the Viability Curve (AUC), AUC norm value",YCC11,0.08841
same,"Average Area Under the Viability Curve (AUC), AUC norm value",MKN1,0.558
same,"Average Area Under the Viability Curve (AUC), AUC norm value",NCC19,0.3912
same,"Average Area Under the Viability Curve (AUC), AUC norm value",YCC3,0.3561
same,"Average Area Under the Viability Curve (AUC), AUC norm value",NCI_N87,−0.2649
same,"Average Area Under the Viability Curve (AUC), AUC norm value",SNU16,−0.7883
same,"Average Area Under the Viability Curve (AUC), AUC norm value",SNU668,1.486
same,"Average Area Under the Viability Curve (AUC), AUC norm value",SNU638,0.1995
same,"Average Area Under the Viability Curve (AUC), AUC norm value",SK4,−0.3258
same,"Average Area Under the Viability Curve (AUC), AUC norm value",SNU1967,−1.0365
same,"Average Area Under the Viability Curve (AUC), AUC norm value",MKN74,−0.06428
same,"Average Area Under the Viability Curve (AUC), AUC norm value",SNU1,−0.984
same,"Average Area Under the Viability Curve (AUC), AUC norm value",NCC20,−1.396
same,"Average Area Under the Viability Curve (AUC), AUC norm value",MKN45,2.743
same,"Average Area Under the Viability Curve (AUC), AUC norm value",KATO3,0.3482
same,"Average Area Under the Viability Curve (AUC), AUC norm value",YCC2,−0.1018
same,"Average Area Under the Viability Curve (AUC), AUC norm value",Hs746T,0.2906
same,"Average Area Under the Viability Curve (AUC), AUC norm value",SNU216,0.3424
same,"Average Area Under the Viability Curve (AUC), AUC norm value",AGS,−1.073
same,"Average Area Under the Viability Curve (AUC), AUC norm value",SNU484,0
same,"Average Area Under the Viability Curve (AUC), AUC norm value",SNU1750,−0.8596
same,"Average Area Under the Viability Curve (AUC), AUC norm value",SNU620,−1.2467
same,"Average Area Under the Viability Curve (AUC), AUC norm value",MKN28,−0.5312
same,"Average Area Under the Viability Curve (AUC), AUC norm value",FU97,−0.6324
CC(C)C[C@H](NC(=O)CNC(=O)c1cc(Cl)ccc1Cl)B(O)O [MLN2238],"area under the viability curve (AUC), normalized",NCC24; 12-point dose-response,−1.21
same,"area under the viability curve (AUC), normalized",SNU601; 12-point dose-response,−0.2758
same,"area under the viability curve (AUC), normalized",SNU719; 12-point dose-response,0.4168
same,"area under the viability curve (AUC), normalized",OCUM1; 12-point dose-response,2.118
same,"area under the viability curve (AUC), normalized",NCC59; 12-point dose-response,0.318
same,"area under the viability curve (AUC), normalized","YCC11; YCC11 cells, 12-point dose-response",−1.695
same,"area under the viability curve (AUC), normalized",MKN1; 12-point dose-response,0.3958
same,"area under the viability curve (AUC), normalized",NCC19; 12-point dose-response,−0.8166
same,"area under the viability curve (AUC), normalized",YCC3; 12-point dose-response,2.808
same,"area under the viability curve (AUC), normalized",NCI_N87; 12-point dose-response,1.708
same,"area under the viability curve (AUC), normalized",SNU16; 12-point dose-response,0.7701
same,"area under the viability curve (AUC), normalized","SNU668; SNU668 cells, 12-point dose-response",1.1951
same,"area under the viability curve (AUC), normalized",SNU638; 12-point dose-response,−0.5736
same,"area under the viability curve (AUC), normalized","SK4; SK4 cells, 12-point dose-response",0.5584
same,"area under the viability curve (AUC), normalized",SNU1967; 12-point dose-response,−1.676
same,"area under the viability curve (AUC), normalized",MKN74; 12-point dose-response,−0.2214
same,"area under the viability curve (AUC), normalized",SNU1; 12-point dose-response,−0.5037
same,"area under the viability curve (AUC), normalized",NCC20; 12-point dose-response,−1.247
same,"area under the viability curve (AUC), normalized","MKN45; MKN45 cells, 12-point dose-response",0.4006
same,"area under the viability curve (AUC), normalized",KATO3; 12-point dose-response,0.7115
same,"area under the viability curve (AUC), normalized",YCC2; 12-point dose-response,0.04339
same,"area under the viability curve (AUC), normalized","Hs746T; Hs746T cells, 12-point dose-response",−1.189
same,"area under the viability curve (AUC), normalized","SNU216; SNU216 cells, 12-point dose-response",0.2331
same,"area under the viability curve (AUC), normalized","AGS; AGS cells, 12-point dose-response",−0.8012
same,"area under the viability curve (AUC), normalized","SNU484; SNU484 cells, 12-point dose-response",−0.4125
same,"area under the viability curve (AUC), normalized","SNU1750; SNU1750 cells, 12-point dose-response",−1.896
same,"area under the viability curve (AUC), normalized",SNU620; 12-point dose-response,−0.9643
same,"area under the viability curve (AUC), normalized",MKN28; 12-point dose-response,0.5257
same,"area under the viability curve (AUC), normalized",FU97; 12-point dose-response,0
